Counter-ions that a name gives are not always drawn.

For one assay, the system named is HCT-116 cells. Nature of the assay: HCT assay: real-time proliferation assay using xCELLigence system. To be noted: xCELLigence impedance. Format: cell-based. The procedure: The compounds were evaluated in a proliferation assay using HCT-116 cells using an xCELLigence system. Briefly, the xCELLigence system monitors cellular events in real time by measuring electrical impedance across interdigitated micro-electrodes integrated on the bottom of tissue culture E-Plates. The impedance measurement provides quantitative information about the biological status of the cells, including cell number, viability, and morphology. Real-time proliferation assays were then to determine the IC50 values. All proliferation assays start 24 hours after the transfection.

Assay [1] relates to GalN/LPS fulminant liver injury. Nature of the assay: GalN/LPS fulminant liver injury model, Study b (serum ALT). The note with it: for Hepatoprotection at lower doses: 10 mg/kg (4.3 and 8.6 μmole/kg) for C2, 5 and 10 mg/kg (3.3 and 6.6 μmole/kg) for C4, 5 mg/kg (6.3 mole/kg [sic]) for C5; for Hepatoprotection in the model (low ALT activity levels following GalN/LPS): FIG. 3; for ALT: GalN-LPS 700 mg/kg - 10 μg/kg, 6 hours post injury, WFI control 5989. In kind it is in vivo, C57BL/6 mice. The procedure:
(§1) Mice were maintained under 12 h light/dark cycles with unlimited access to food and water. Study was performed in 6- to 14-week old male mice. C57BL/6 mice were used. Mice are first injected with pentamidine or Example 2 compound (IP injection). […]
(§2) All doses were administered IP to six mice (n=6), 30 minutes prior to the injection of the GalN and LPS, when applicable to the group. Blood samples were collected exactly 6 hours post GalN/LPS injections, or 6.5 hours after vehicle injections.
(§3) The tested compounds were dosed IP 30 minutes prior to the co-treatment with galactosamine (GalN) and endotoxin (Lipopolysaccharide) LPS. Mice were sacrificed at 6 hours after GalN/LPS for ALT analysis. The analysis of alanine transaminase (ALT) serum levels allows the evaluation of the hepatoprotective, anti-TNF-α, anti-inflammatory and/or anti-fibrotic activity.

Assay [2] shares this test system. Nature of the assay: GalN/LPS fulminant liver injury model, Study a (survival). Format: in vivo, C57BL/6 mice. As to the method: A Galactosamine/Liposaccharide (GalN/LPS) fulminant liver injury model may be used to evaluate the anti-inflammatory, anti-TNFα and hepatoprotective properties of the compound of the description.
Mice were maintained under 12 h light/dark cycles with unlimited access to food and water. Study was performed in 6- to 14-week old male mice. C57BL/6 mice were used. Mice are first injected with pentamidine or Example 2 compound (IP injection). 30 minutes later, liver injury is induced by intraperitoneal injections of 100 μg/kg of LPS (E. coli 0111:B4) and 700 mg/kg of GalN (Sigma) dissolved in phosphate-buffered saline (PBS).
The tested compounds were be dosed IP 30-minutes prior to the co-treatment with galactosamine (GalN) and endotoxin (Lipopolysaccharide) LPS. Mice were either sacrificed at 6.5 hours after GalN/LPS for ALT analysis, or kept for longer periods to evaluate survival. The analysis of alanine transaminase (ALT) serum levels and histological observations allow the evaluation of the hepatoprotective, anti-TNF-α, anti-inflammatory and/or anti-fibrotic activity.
Survival was evaluated at two time points, i.e. 8 and 23 hours. In controls group receiving PBS prior to the GalN/LPS liver injury, no mice survived 8 hours. […] In the case of trihexamidine isethionate, all mice survived more than 23 hours with 10 mg/kg (8.6 μmole/kg) doses.

The test system of assay [3] is DSS-induced acute colitis. Nature of the assay: DSS-induced acute colitis in mice (Disease Activity Index). In kind it is in vivo, C57BL/6 ELITE mice. The note with it: 2.5% DSS; 2.5 and 5 mg/kg IP q.d. D1-D6, termination D7; FIG. 5. As to the method: Dextran Sulfate Sodium 2.5% stocks were prepared by adding tap water in the pre-weighed powder. DSS solutions will be changed every 3 days for all groups, i.e. on Day 1 (D1) and Day 4 (D4).
Formulations for Intraperitoneal Administration: • Vehicle: sterile double distilled water (DDW) • For Pentamidine (Penta) and Compounds 2 and 4, the compounds were dissolved in DDW and dosed at 2 mL/kg to yield the indicated doses. In-Vivo Study
Male C57BL/6 ELITE mice of ˜7-8 weeks old were used. After 5-day acclimatization period in animal facility, all mice were weighed and given tap water containing 2.5% DSS on Day 1, treatment also starts on Day 1.
Animals were dosed from D1 to D6, once daily by IP injection (2 mL/kg). Animals were terminated on D7. The Disease Activity Index (DAI) scale is based on the evaluation of different parameters characterizing experimental colitis induction and progression. Body weight, presence of gross blood in the feces and stool consistency will be recorded daily.
• Weight loss: 0=none; 1=1 to 5%; 2=5 to 10%; 3=_10 to 20%; 4=>20% • Stool consistency: 0=normal; 2=loose; 4=diarrhea • Rectal bleeding: 0=normal; 2=occult bleeding; 4=gross bleeding
On Day 7, mice will be weighed and disease scores evaluated, and then euthanized by CO2 inhalation.

Assay [4] deals with GalN/LPS fulminant liver injury. The experiment in a line: GalN/LPS fulminant liver injury model, Study c (serum ALT). The note with it: for ALT: GalN-LPS 700 mg/kg - 10 μg/kg, 6 hours post injury, WFI control 4403. In kind it is in vivo, C57BL/6 mice. As to the method:
as §1, §2, §3

The mark [5] stands for this setting: Homo sapiens, HCT-116, HCT-116 cells.

One may read the IC50 as the concentration needed to halve the response being measured. A low value points to greater potency. `N=C(N)c1ccc(OCCCCCCOc2cc(OCCCCCCOc3ccc(C(=N)N)cc3)cc(OCCCCCCOc3ccc(C(=N)N)cc3)c2)cc1` [Compound 1, Trihexamidine Formate] returned an IC50 with HCT-116 cells (setting [5]) of 1.9 µM.
As to `N=C(N)c1ccc(OCCCCCCOc2cc(OCCCCCCOc3ccc(C(=N)N)cc3)cc(OCCCCCCOc3ccc(C(=N)N)cc3)c2)cc1` [Compound 2, Trihexamidine Isethionate], the “Hepatoprotection at lower doses” value in assay [1] was “Significant hepatoprotection”. For the same compound, the “Hepatoprotection in the model (low ALT activity levels following GalN/LPS)” value in assay [1] is reported as “hepatoprotective”. Besides, the ALT was 2184 IU/L in assay [1] (IP dose 5 mg/kg in WFI) and 890 IU/L in assay [1] (IP dose 10 mg/kg in WFI). The “Survival (all mice) post GalN/LPS” value in assay [2] (10 mg/kg (8.6 μmole/kg) IP 30 min before GalN/LPS) is reported as “more than 23 hours”. In addition, the Disease activity index result in assay [3] was “reduced the disease activity index”. This compound came in with an IC50 with HCT-116 cells (HCT-116 cells) of 2.66 µM.
Take `N=C(N)c1ccc(OCCCCCCCCOc2cc(OCCCCCCCCOc3ccc(C(=N)N)cc3)cc(OCCCCCCCCOc3ccc(C(=N)N)cc3)c2)cc1` [Compound 3, Trioctamidine Isethionate]: the IC50 in the assay with HCT-116 cells (setting [5]) worked out at 6.67 µM.
Take `N=C(N)c1ccc(OCCCOc2cc(OCCCOc3ccc(C(=N)N)cc3)cc(OCCCOc3ccc(C(=N)N)cc3)c2)cc1` [Compound 4, Tripropamidine Formate]: in assay [1], the “Hepatoprotection at lower doses” value is reported as “Significant hepatoprotection”. For the same compound, the “Hepatoprotection in the model (low ALT activity levels following GalN/LPS)” value is reported as “hepatoprotective” in assay [1] and “dose-dependent hepatoprotection” in assay [4] (Study c, FIG. 4). In addition, the ALT in assay [1] (IP dose 5 mg/kg in WFI) was determined as 731 IU/L; in assay [4] (Study c, IP dose 0.625 mg/kg in WFI), 1755 IU/L; in assay [4] (Study c, IP dose 1.25 mg/kg in WFI) it was 1090 IU/L; in assay [4] (Study c, IP dose 2.5 mg/kg in WFI), 555 IU/L. The Disease activity index entry in assay [3] is “reduced the disease activity index”. In addition, the “Hepatoprotection at stated doses” value in assay [4] (Study c, 0.625 mg/kg, 1.25 mg/kg and 2.5 mg/kg IP) is “Significant hepatoprotection”. This compound also returned an IC50 with HCT-116 cells (setting [5]) of 38 µM.
Turning to `N=C(N)c1ccc(OCCCCCOc2ccc(C(=N)N)cc2)cc1` [Pentamidine, pentamidine, reference compound], the “Hepatoprotection (positive control)” value in assay [1] (50 mg/kg (84 μmole/kg)) is given as “benefited from hepatoprotective properties”; in assay [4] (Study c text, 50 mg/kg (84 μmole/kg)), “benefited from hepatoprotective properties”. Moreover, in assay [1] (IP dose 50 mg/kg in WFI), the ALT is given as 306 IU/L. Moreover, the “Survival at 8 hours post GalN/LPS” value in assay [2] (25 mg/kg IP 30 min before GalN/LPS) was “only the 40 mg/kg (67 μmole/kg) group benefited”; in assay [2] (40 mg/kg (67 μmole/kg) IP 30 min before GalN/LPS, PBS controls: no mice survived 8 hours) it was “benefited from hepatoprotective properties”. In addition, in assay [2] (25 and 40 mg/kg IP 30 min before GalN/LPS), the “Survival at 23 hours post GalN/LPS” value was “none survived”.
Regarding “Triamidine Formate (Chain Average Mn 1000) [Compound 5]”, in assay [1], the “Hepatoprotection at lower doses” value is given as “Significant hepatoprotection” and the “Hepatoprotection in the model (low ALT activity levels following GalN/LPS)” value is recorded as “hepatoprotective”. In assay [1] (IP dose 5 mg/kg in WFI), the ALT is 1072 IU/L. In assay [1] (IP dose 10 mg/kg in WFI), this compound showed an ALT of 689 IU/L. The “HCT-116 IC50” value with HCT-116 cells (HCT-116 cells) is “∞”.

(Values after patent publication US11098009B2, “Amidine substituted analogues and uses thereof” (Verlyx Pharma Inc., priority 2016, dated 2021).)
